Test results as given in US12588678B2, “Oxazoline compound, synthesis method therefor and application thereof” (NANKAI UNIVERSITY, priority 2019, dated 2026).

Columns and labels:
[1] = test system: Tetranychus cinnabarinus mite eggs; test: Activity against mite eggs, dipping method on bean seedling leaves; type: in vivo; settings: Tetranychus cinnabarinus, 96 h, checked after 4 days; for mortality at 0.1 µg/mL: read-out: mortality of mite eggs (%), 0.1 mg/L; for mortality at 1 µg/mL: read-out: mortality of mite eggs (%), 1 mg/L; for mortality at 10 µg/mL: read-out: mortality of mite eggs (%), 10 mg/L; for mortality at 100 µg/mL: read-out: mortality of mite eggs (%), 100 mg/L; for mortality at 200 µg/mL: read-out: mortality of mite eggs (%), 200 mg/L; for mortality at 0.001 µg/mL: read-out: mortality of mite eggs (%), 0.001 mg/L; for mortality at 0.01 µg/mL: read-out: mortality of mite eggs (%), 0.01 mg/L; for mortality at 0.5 µg/mL: read-out: mortality of mite eggs (%), 0.5 mg/L
From the text: (§1) The assay examples are used to illustrate the acaricidal activity against Tetranychus cinnabarinus (mortality of mite larvae and mortality of mite eggs) of the compounds having the structure represented by formula (I), and the results are shown in tables 1 to 9, where mortality of mite larvae % =(number of dead mite larvae applied/total number of mite larvae applied)×100, and mortality of mite eggs %= (number of dead mite eggs applied/total number of mite eggs applied)×100.
Tetranychus cinnabarinus bred indoors on bean seedlings was used as a test subject by the dipping method. Move female adult mites onto the newly grown complete bean seedling leaves with two leaves, cut off the bean seedlings, place the bean seedlings in a greenhouse with illumination at 25° C. for laying eggs for 24 hours, then remove adult mites and keep mite eggs. After continuously culturing in the greenhouse for one day, completely soak the bean seedling leaves containing the acarid eggs into the prepared sample solution to be tested for 5-6 seconds by using tweezers, slightly throw off residual liquid, put the bean seedling leaves back to the culture cup, continuously culture for 4 days and then check the result. One of the plants was immersed in a solution containing no sample to be tested and the remaining additives were identical to the sample solution as a blank control. Each compound was replicated three times.

[2] = test system: Tetranychus cinnabarinus mite larvae; test: Larvicidal activity test, dipping method on bean seedling leaves; type: in vivo; settings: for mortality at 1 µg/mL / mortality at 10 µg/mL / mortality at 100 µg/mL / mortality at 200 µg/mL / mortality at 0.1 µg/mL / mortality at 0.001 µg/mL / mortality at 0.01 µg/mL / mortality at 0.5 µg/mL / mortality at 0.05 µg/mL: Tetranychus cinnabarinus, 96 h, checked after 4 days; for mortality at 1 µg/mL: read-out: mortality of mite larvae (%), 1 mg/L; for mortality at 10 µg/mL: read-out: mortality of mite larvae (%), 10 mg/L; for mortality at 100 µg/mL: read-out: mortality of mite larvae (%), 100 mg/L; for mortality at 200 µg/mL: read-out: mortality of mite larvae (%), 200 mg/L; for mortality at 0.1 µg/mL: read-out: mortality of mite larvae (%), 0.1 mg/L; for acaricidal activity compared with etoxazole: Tetranychus cinnabarinus eggs and larvae, etoxazole as reference; for mortality at 0.001 µg/mL: read-out: mortality of mite larvae (%), 0.001 mg/L; for mortality at 0.01 µg/mL: read-out: mortality of mite larvae (%), 0.01 mg/L; for mortality at 0.5 µg/mL: read-out: mortality of mite larvae (%), 0.5 mg/L; for mortality at 0.05 µg/mL: read-out: mortality of mite larvae (%), 0.05 mg/L
From the text: as §1
Tetranychus cinnabarinus bred indoors on bean seedlings was used as a test subject by the dipping method. Move adult mites onto the newly grown complete bean seedling leaves with two leaves, cut off the bean seedlings, place the bean seedlings in a greenhouse with illumination at 25° C. for laying eggs for 24 hours, then remove adult mites and keep mite eggs. And continuously culture in the greenhouse for 5 days until mite eggs hatch into mite larvae (ensuring that the number of the mites on each tested leaf is not less than 60).
Completely immerse the bean seedling leaves containing the mite larvae into the sample solution to be detected with Tween at the prepared concentration for 5-6 seconds by using tweezers, slightly throw off residual liquid, put the bean seedling leaves back to the culture cup, continuously culture for 4 days and check the result. One of the plants was immersed in a solution containing no sample to be tested and the remaining additives were identical to the sample solution as a blank control. Each compound was replicated three times.

| Structure (SMILES) | mortality at 0.1 µg/mL [1] | mortality at 1 µg/mL [1] | mortality at 10 µg/mL [1] | mortality at 100 µg/mL [1] | mortality at 200 µg/mL [1] | mortality at 1 µg/mL [2] | mortality at 10 µg/mL [2] | mortality at 100 µg/mL [2] | mortality at 200 µg/mL [2] | mortality at 0.1 µg/mL [2] | mortality at 0.001 µg/mL [1] | mortality at 0.01 µg/mL [1] | mortality at 0.5 µg/mL [1] | acaricidal activity compared with etoxazole [2] | mortality at 0.001 µg/mL [2] | mortality at 0.01 µg/mL [2] | mortality at 0.5 µg/mL [2] | mortality at 0.05 µg/mL ([1]; read-out: mortality of mite eggs (%), 0.05 mg/L) | mortality at 0.05 µg/mL [2] |
| --- | --- | --- | --- | --- | --- | --- | --- | --- | --- | --- | --- | --- | --- | --- | --- | --- | --- | --- | --- |
| Fc1cccc(F)c1C1=NC(c2ccc(COc3cccnc3)cc2)CO1 (centres unmarked) [Compound R2-13] | 70% | 80% | 85% | 100% | 100% | 60% | 95% | 100% | 100% |  |  |  |  |  |  |  |  |  |  |
| Fc1cccc(F)c1C1=NC(c2ccc(COc3ccncc3)cc2)CO1 (centres unmarked) [Compound R2-14] |  |  | 50% | 100% | 100% |  |  | 65% | 90% |  |  |  |  |  |  |  |  |  |  |
| Fc1cccnc1OCc1ccc(C2COC(c3c(F)cccc3F)=N2)cc1 (centres unmarked) [Compound R2-15] |  |  | 70% | 100% | 100% |  | 60% | 80% | 100% |  |  |  |  |  |  |  |  |  |  |
| Fc1cccc(F)c1C1=NC(c2ccc(COc3ccncn3)cc2)CO1 (centres unmarked) [Compound R2-16] |  |  | 50% | 100% | 100% |  |  | 50% | 88% |  |  |  |  |  |  |  |  |  |  |
| Fc1cccc(F)c1C1=NC(c2ccc(COc3ncccn3)cc2)CO1 (centres unmarked) [Compound R2-17] |  |  | 70% | 100% | 100% |  |  | 60% | 90% |  |  |  |  |  |  |  |  |  |  |
| Fc1ccc(OCc2ccc(C3COC(c4c(F)cccc4F)=N3)cc2)cc1 (centres unmarked) [Compound R2-18] | 85% | 90% | 96% | 100% | 100% | 80% | 88% | 100% | 100% | 70% |  |  |  |  |  |  |  |  |  |
| Fc1cccc(F)c1C1=NC(c2ccc(COc3ccc(Cl)cc3)cc2)CO1 (centres unmarked) [Compound R2-19] |  | 90% | 100% | 100% | 100% | 88% | 90% | 100% | 100% | 85% | 10% | 32% | 80% | higher acaricidal activity than etoxazole | 8% | 30% | 72% |  |  |
| Fc1cccc(F)c1C1=NC(c2ccc(COc3ccc(Br)cc3)cc2)CO1 (centres unmarked) [Compound R2-20] |  | 60% | 90% | 100% | 100% | 40% | 80% | 92% | 100% |  |  |  |  |  |  |  |  |  |  |
| Cc1ccc(OCc2ccc(C3COC(c4c(F)cccc4F)=N3)cc2)cc1 (centres unmarked) [Compound R2-22] | 80% | 90% | 100% | 100% | 100% | 55% | 88% | 96% | 100% |  |  |  |  |  |  |  |  |  |  |
| Fc1cccc(F)c1C1=NC(c2ccc(COc3ccc(C(F)(F)F)cc3)cc2)CO1 (centres unmarked) [Compound R2-23] | 75% | 85% | 90% | 90% | 100% | 80% | 95% | 100% | 100% | 75% |  |  |  |  |  |  |  |  |  |
| Fc1cccc(F)c1C1=NC(c2ccc(COc3ccc4ccccc4c3)cc2)CO1 (centres unmarked) [Compound R2-24] | 70% | 80% | 95% | 100% | 100% | 100% | 100% | 100% | 100% | 85% | 28% | 50% | 85% | higher acaricidal activity than etoxazole | 20% | 50% | 80% |  |  |
| CS(=O)(=O)Oc1ccc(C2COC(c3c(F)cccc3F)=N2)cc1 (centres unmarked) [Compound R3-1] |  | 70% | 90% | 95% | 100% | 80% | 100% | 100% | 100% | 50% |  |  |  |  |  |  |  |  |  |
| CCS(=O)(=O)Oc1ccc(C2COC(c3c(F)cccc3F)=N2)cc1 (centres unmarked) [Compound R3-2] |  | 50% | 80% | 95% | 100% | 60% | 90% | 100% | 100% |  |  |  |  |  |  |  |  |  |  |
| CCCS(=O)(=O)Oc1ccc(C2COC(c3c(F)cccc3F)=N2)cc1 (centres unmarked) [Compound R3-3] | 50% | 90% | 100% | 100% | 100% | 100% | 100% | 100% | 100% | 80% |  |  | 75% | equivalent or better acaricidal activity compared with etoxazole |  |  | 95% | 20% | 40% |
| C=CS(=O)(=O)Oc1ccc(C2COC(c3c(F)cccc3F)=N2)cc1 (centres unmarked) [Compound R3-6] |  |  | 60% | 80% | 100% | 60% | 80% | 80% | 100% |  |  |  |  |  |  |  |  |  |  |
| O=S(=O)(Oc1ccc(C2COC(c3c(F)cccc3F)=N2)cc1)c1ccc(F)cc1 (centres unmarked) [Compound R3-7] |  | 60% | 90% | 100% | 100% | 50% | 90% | 100% | 100% |  |  |  |  |  |  |  |  |  |  |
| O=S(=O)(Oc1ccc(C2COC(c3c(F)cccc3F)=N2)cc1)c1ccc(Cl)cc1 (centres unmarked) [Compound R3-8] |  | 70% | 90% | 95% | 100% | 85% | 98% | 100% | 100% | 60% |  |  |  |  |  |  |  |  |  |
| O=S(=O)(Oc1ccc(C2COC(c3c(F)cccc3F)=N2)cc1)c1ccc(Br)cc1 (centres unmarked) [Compound R3-9] | 30% | 75% | 90% | 100% | 100% | 100% | 100% | 100% | 100% | 70% |  |  | 60% | equivalent or better acaricidal activity compared with etoxazole |  |  | 90% |  | 40% |
